Experimental data from patent US6706706B2, “Non-nucleoside reverse transcriptase inhibitors” (priority 2002, dated 2004).

Legend:
[1] = system: HIV replication in C8166 cells, virus coding for wild type reverse transcriptase; assay: microbe, parasite or virus in culture; type: cell-based, HIV-1; conditions: Human immunodeficiency virus 1, 72 h, three days, extracellular p24
Experimental: The compound of the invention was tested for its ability to inhibit HIV replication in cell culture in a 96-well plate assay. Complete RPMI 1640, consisting of RPMI 1640+10% fetal bovine serum, 10 μg/ml gentamycin and 10 μM β-mercaptoethanol was used for dilution of the compound as well as cell growth medium. The T lymphocyte cell line C8166 was infected at a multiplicity of infection of 0.001 with viruses coding for wild type and mutant reverse transcriptase. Cells were then incubated for three days in the presence of serial dilutions of the compound of the invention. The supernatant was pooled from eight replica wells and the concentration of extracellular p24 was determined using a commercially available HIV-1 p24 antigen assay kit (Beckman-Coulter®). The level of inhibition (% inhibition) was calculated with the following equation: [formula]

[2] = target: HIV-1 RT wild-type (WT) (Human immunodeficiency virus type 1 group M subtype B, UniProt P03366); assay: biochemical
Text: This activity can be quantitatively measured in a cell-free enzyme assay and is based upon the observation that reverse transcriptase is able to use a synthetic template poly r(C) primed with a biotinylated oligo d(G) to transcribe a radio-labeled DNA strand utilizing 3H-dGTP as a substrate.

CCN1c2ncc(CCOc3ccc(C(=O)O)c(C)c3C)cc2C(=O)N(C)c2cccnc21 [Entry 1001]
EC50 [1]: < 50 nM | IC50 [2]: < 50 nM

CCN1c2ncc(CCOc3ccc(C(=O)O)cc3C)cc2C(=O)N(C)c2cccnc21 [Entry 1002]
EC50 [1]: < 50 nM | IC50 [2]: < 50 nM

CCc1cc(C(=O)O)ccc1OCCc1cnc2c(c1)C(=O)N(C)c1cccnc1N2CC [Entry 1003]
IC50 [2]: < 50 nM

CCN1c2ncc(CCOc3ccc(C(=O)O)c(O)c3C)cc2C(=O)N(C)c2cccnc21 [Entry 1004]
EC50 [1]: < 50 nM | IC50 [2]: < 50 nM

CCN1c2ncc(CCOc3ccc(C(=O)O)cc3Br)cc2C(=O)N(C)c2cccnc21 [Entry 1005]
IC50 [2]: < 50 nM

CCN1c2ncc(CCOc3ccc(C(C)C(=O)O)cc3C)cc2C(=O)N(C)c2cccnc21 (stereo not drawn) [Entry 1006]
IC50 [2]: < 50 nM

CCN1c2ncc(CCOc3ccc(CCC(=O)O)cc3C)cc2C(=O)N(C)c2ccc(Cl)nc21 [Entry 1007]
EC50 [1]: < 50 nM | IC50 [2]: < 50 nM

CCN1c2ncc(CCOc3ccc(CCC(=O)O)cc3C)cc2C(=O)N(C)c2cccnc21 [Entry 1008]
EC50 [1]: < 50 nM | IC50 [2]: < 50 nM

CCN1c2ncc(CCOc3ccc(C=CC(=O)O)cc3C)cc2C(=O)N(C)c2ccc(Cl)nc21 [Entry 1009]
EC50 [1]: < 50 nM | IC50 [2]: < 50 nM

CCN1c2ncc(CCOc3ccc(C=CC(=O)O)cc3C)cc2C(=O)N(C)c2cccnc21 [Entry 1010]
EC50 [1]: < 50 nM | IC50 [2]: < 50 nM

CCN1c2ncc(CCOc3ccc(CC(=O)O)cc3Cl)cc2C(=O)N(C)c2cccnc21 [Entry 1011]
IC50 [2]: < 50 nM

CCN1c2ncc(CCOc3ccc(CC(=O)O)cc3Br)cc2C(=O)N(C)c2cccnc21 [Entry 1012]
IC50 [2]: < 50 nM

CCN1c2ncc(CCOc3ccc(CC(=O)O)c(C)c3C)cc2C(=O)N(C)c2cccnc21 [Entry 1013]
IC50 [2]: < 50 nM

CCN1c2ncc(CCOc3ccc(CC(=O)O)cc3C)cc2C(=O)N(C)c2cccnc21 [Entry 1014]
EC50 [1]: < 50 nM | IC50 [2]: < 50 nM

CCN1c2ncc(CCOc3ccc(C(=O)O)cc3C)cc2C(=O)N(C)c2ccc(Cl)nc21 [Entry 1015]
IC50 [2]: < 50 nM

CCN1c2ncc(CCOc3ccc(C(=O)O)cc3C)cc2C(=O)Nc2c(C)cc(Cl)nc21 [Entry 1016]
IC50 [2]: < 50 nM

CCN1c2ncc(CCOc3ccc(C(=O)O)cc3C)cc2C(=O)N(C)c2ccc(C)nc21 [Entry 1017]
IC50 [2]: < 50 nM

CCN1c2ncc(CCOc3ccc(C(=O)O)cc3C)cc2C(=O)Nc2c(C)ccnc21 [Entry 1018]
EC50 [1]: < 50 nM | IC50 [2]: < 50 nM

CCN1c2ncc(CCOc3ccc(C(=O)O)cc3C)cc2C(=O)N(C)c2ccc(OC)nc21 [Entry 1019]
IC50 [2]: < 50 nM

CCN1c2ncc(CCOc3ccc(C(=O)O)cc3C)cc2C(=O)N(C)c2ccc(F)nc21 [Entry 1020]
IC50 [2]: < 50 nM

CCOc1ccc2c(n1)N(CC)c1ncc(CCOc3ccc(C(=O)O)cc3C)cc1C(=O)N2C [Entry 1021]
IC50 [2]: < 50 nM

CCN1c2ncc(CCOc3ccc(C(=O)O)cc3[N+](=O)[O-])cc2C(=O)N(C)c2cccnc21 [Entry 1022]
EC50 [1]: 50 to 100 nM | IC50 [2]: 50 to 100 nM

CCN1c2ncc(CCOc3ccc(C(=O)O)cc3Cl)cc2C(=O)N(C)c2cccnc21 [Entry 1023]
EC50 [1]: < 50 nM | IC50 [2]: 50 to 100 nM

CCN1c2ncc(CCOc3ccc(C(=O)O)c(N)c3)cc2C(=O)N(C)c2cccnc21 [Entry 1024]
IC50 [2]: < 50 nM

CCN1c2ncc(CCOc3ccc(C(=O)O)c(F)c3)cc2C(=O)N(C)c2cccnc21 [Entry 1025]
IC50 [2]: 50 to 100 nM

CCN1c2ncc(CCOc3ccc(C(=O)O)c(Cl)c3)cc2C(=O)N(C)c2cccnc21 [Entry 1026]
IC50 [2]: 50 to 100 nM

CCN1c2ncc(CCOc3ccc(C(=O)O)cc3C(F)(F)F)cc2C(=O)N(C)c2cccnc21 [Entry 1027]
IC50 [2]: 50 to 100 nM

CCN1c2ncc(CCOc3ccc(C(=O)O)cc3C)cc2C(=O)N(C)c2ccc(N(C)C)nc21 [Entry 1028]
IC50 [2]: < 50 nM

CCN1c2ncccc2NC(=O)c2cc(CCOc3ccc(C(=O)O)cc3C)cnc21 [Entry 1029]
EC50 [1]: < 50 nM | IC50 [2]: < 50 nM

CCN1c2ncc(CCOc3ccc(C(=O)OC)cc3C)cc2C(=O)N(C)c2cccnc21 [Entry 1030]
EC50 [1]: < 50 nM | IC50 [2]: < 50 nM

CCc1cc(C(=O)OC)ccc1OCCc1cnc2c(c1)C(=O)N(C)c1cccnc1N2CC [Entry 1031]
IC50 [2]: < 50 nM

CCN1c2ncc(CCOc3ccc(C(=O)OC)cc3Cl)cc2C(=O)N(C)c2cccnc21 [Entry 1032]
IC50 [2]: < 50 nM

CCN1c2ncc(CCOc3ccc(C(=O)OC)cc3C(F)(F)F)cc2C(=O)N(C)c2cccnc21 [Entry 1033]
IC50 [2]: < 50 nM

CCOc1ccc2c(n1)N(CC)c1ncc(CCOc3ccc(C(=O)OC)cc3C)cc1C(=O)N2C [Entry 1034]
IC50 [2]: < 50 nM

CCN1c2ncc(CCOc3ccc(C(=O)OC)c(F)c3)cc2C(=O)N(C)c2cccnc21 [Entry 1035]
IC50 [2]: < 50 nM
